Source: patent publication US9120849B2 (priority 2000, dated 2015)
Like-named read-outs stand apart in the source and are kept apart here.

Test system: HIV
Conditions: CEM cells
Description: This example describes one method of inactivation of the purified virus according to the invention by crosslinking of surface proteins. […] Titrations of the fixative were preformed above and below the concentration recommended by the CDC for inactivation of virus in biological fluids (May 8, 1992/41 (RR-8); 001 CDC Guidelines for the Performance of CD4+ T-Cell Determinations in Persons with Human Immunodeficiency Virus Infection). Initially, purified virus was slowly thawed at 2-8° C. for 6-8 hours to minimize lysis of the virus. Next, while on ice, virus was diluted with cold PBS to a final concentration of approximately 1×10^10 copies/mL (cp/mL). […] The reaction mixtures were then incubated at 2-8° C. for 60 minutes while gently rocking. […] After the addition of glycine the reactions were gently rocked for 2 hr. at 2-8° C. To remove glycine and any excess unquenched fixative each reaction mixture was then dialyzed (10-14K m.w. cutoff) against 1 L PBS (pH 7.4, 2-8° C.) for 4 changes. Dialyzed virus was then transferred into a 15 mL tube and centrifuged for 10 min. at 3,000×g to pellet any precipitated virus. A sample of each supernatant was then tested in cell culture for the presence of infectious virus.
The modified virus produced as described in Example 2 was tested to ensure the process inactivated the virus. As an illustration, the CEM cell line, obtained from the American Type Culture Collection was used as a host cell for viral infectivity studies. Advantages of using this line are that establishment of in vitro HIV infection requires relatively few virions and that the infection is chronic rather than lytic, facilitating analysis. For these studies, infection is detected and followed using the ZeptoMetrix HIV p24 Antigen EIA (ZeptoMetrix, Buffalo N.Y.).
CEM cells are cultured in RPMI-1640 containing 10% FBS in 24 well plates Cells are plated at 10^5 cells per well in a 1 ml volume and 100 ul of various dilutions of virus, either treated or untreated, are added to individual wells. Cultures are fed twice weekly by 50% media replacement and culture supernatants are assayed for HIV p24. All cultures initially contain HIV p24. However, in cultures where virus is noninfectious HIV p24 levels decrease over time eventually reaching background levels.
Different dilutions (1:8,000, 1:80,000, and 1:800,000) of treated virus were then placed into cultures of CEM cells and p24 assays were performed on culture supernatants on days 3, 7, 10, and 14 post-inoculation. Data are expressed as pg/ml of HIV p24 protein in the culture supernatants. The standard curve for the p24 assay is linear from 7.8 pg/ml to 125 pg/ml. HIV p24 concentrations below 7.8 pg/ml are expressed as “<7.8 pg/ml” to indicate sensitivity of the assay, and values above 125 pg/ml are expressed as “>125 pg/ml” since the assay is nonlinear above 125 pg/ml.

paraformaldehyde
HIV p24 protein in culture supernatants (0.625% paraformaldehyde 60 min, treated HIV diluted 1:8,000, 3 days post-inoculation): 71.8 pg/mL | HIV p24 protein in culture supernatants (0.625% paraformaldehyde 60 min, treated HIV diluted 1:8,000, 7 days post-inoculation): 109 pg/mL | HIV p24 protein in culture supernatants (0.625% paraformaldehyde 60 min, treated HIV diluted 1:8,000, 10 days post-inoculation): 22.9 pg/mL | HIV p24 protein in culture supernatants (0.625% paraformaldehyde 60 min, treated HIV diluted 1:8,000, 14 days post-inoculation): <7.8 pg/mL | HIV p24 protein in culture supernatants (0.625% paraformaldehyde 60 min, treated HIV diluted 1:80,000, 3 days post-inoculation): <7.8 pg/mL | HIV p24 protein in culture supernatants (0.625% paraformaldehyde 60 min, treated HIV diluted 1:80,000, 7 days post-inoculation): <7.8 pg/mL | HIV p24 protein in culture supernatants (0.625% paraformaldehyde 60 min, treated HIV diluted 1:80,000, 10 days post-inoculation): <7.8 pg/mL | HIV p24 protein in culture supernatants (0.625% paraformaldehyde 60 min, treated HIV diluted 1:80,000, 14 days post-inoculation): <7.8 pg/mL | HIV p24 protein in culture supernatants (0.625% paraformaldehyde 60 min, treated HIV diluted 1:800,000, 3 days post-inoculation): <7.8 pg/mL | HIV p24 protein in culture supernatants (0.625% paraformaldehyde 60 min, treated HIV diluted 1:800,000, 7 days post-inoculation): <7.8 pg/mL | HIV p24 protein in culture supernatants (0.625% paraformaldehyde 60 min, treated HIV diluted 1:800,000, 10 days post-inoculation): <7.8 pg/mL | HIV p24 protein in culture supernatants (0.625% paraformaldehyde 60 min, treated HIV diluted 1:800,000, 14 days post-inoculation): <7.8 pg/mL | HIV p24 protein in culture supernatants (1.25% paraformaldehyde 60 min, treated HIV diluted 1:8,000, 3 days post-inoculation): 41.9 pg/mL | HIV p24 protein in culture supernatants (1.25% paraformaldehyde 60 min, treated HIV diluted 1:8,000, 7 days post-inoculation): 34.2 pg/mL | HIV p24 protein in culture supernatants (1.25% paraformaldehyde 60 min, treated HIV diluted 1:8,000, 10 days post-inoculation): <7.8 pg/mL | HIV p24 protein in culture supernatants (1.25% paraformaldehyde 60 min, treated HIV diluted 1:8,000, 14 days post-inoculation): <7.8 pg/mL | HIV p24 protein in culture supernatants (1.25% paraformaldehyde 60 min, treated HIV diluted 1:80,000, 3 days post-inoculation): <7.8 pg/mL | HIV p24 protein in culture supernatants (1.25% paraformaldehyde 60 min, treated HIV diluted 1:80,000, 7 days post-inoculation): <7.8 pg/mL | HIV p24 protein in culture supernatants (1.25% paraformaldehyde 60 min, treated HIV diluted 1:80,000, 10 days post-inoculation): <7.8 pg/mL | HIV p24 protein in culture supernatants (1.25% paraformaldehyde 60 min, treated HIV diluted 1:80,000, 14 days post-inoculation): <7.8 pg/mL | HIV p24 protein in culture supernatants (1.25% paraformaldehyde 60 min, treated HIV diluted 1:800,000, 3 days post-inoculation): <7.8 pg/mL | HIV p24 protein in culture supernatants (1.25% paraformaldehyde 60 min, treated HIV diluted 1:800,000, 7 days post-inoculation): <7.8 pg/mL | HIV p24 protein in culture supernatants (1.25% paraformaldehyde 60 min, treated HIV diluted 1:800,000, 10 days post-inoculation): <7.8 pg/mL | HIV p24 protein in culture supernatants (1.25% paraformaldehyde 60 min, treated HIV diluted 1:800,000, 14 days post-inoculation): <7.8 pg/mL | HIV p24 protein in culture supernatants (2.5% paraformaldehyde 60 min, treated HIV diluted 1:8,000, 3 days post-inoculation): <7.8 pg/mL | HIV p24 protein in culture supernatants (2.5% paraformaldehyde 60 min, treated HIV diluted 1:8,000, 7 days post-inoculation): <7.8 pg/mL | HIV p24 protein in culture supernatants (2.5% paraformaldehyde 60 min, treated HIV diluted 1:8,000, 10 days post-inoculation): <7.8 pg/mL | HIV p24 protein in culture supernatants (2.5% paraformaldehyde 60 min, treated HIV diluted 1:8,000, 14 days post-inoculation): <7.8 pg/mL | HIV p24 protein in culture supernatants (2.5% paraformaldehyde 60 min, treated HIV diluted 1:80,000, 3 days post-inoculation): <7.8 pg/mL | HIV p24 protein in culture supernatants (2.5% paraformaldehyde 60 min, treated HIV diluted 1:80,000, 7 days post-inoculation): <7.8 pg/mL | HIV p24 protein in culture supernatants (2.5% paraformaldehyde 60 min, treated HIV diluted 1:80,000, 10 days post-inoculation): <7.8 pg/mL | HIV p24 protein in culture supernatants (2.5% paraformaldehyde 60 min, treated HIV diluted 1:80,000, 14 days post-inoculation): <7.8 pg/mL | HIV p24 protein in culture supernatants (2.5% paraformaldehyde 60 min, treated HIV diluted 1:800,000, 3 days post-inoculation): <7.8 pg/mL | HIV p24 protein in culture supernatants (2.5% paraformaldehyde 60 min, treated HIV diluted 1:800,000, 7 days post-inoculation): <7.8 pg/mL | HIV p24 protein in culture supernatants (2.5% paraformaldehyde 60 min, treated HIV diluted 1:800,000, 10 days post-inoculation): <7.8 pg/mL | HIV p24 protein in culture supernatants (2.5% paraformaldehyde 60 min, treated HIV diluted 1:800,000, 14 days post-inoculation): <7.8 pg/mL | HIV p24 protein in culture supernatants (5.0% paraformaldehyde 60 min, treated HIV diluted 1:8,000, 3 days post-inoculation): <7.8 pg/mL | HIV p24 protein in culture supernatants (5.0% paraformaldehyde 60 min, treated HIV diluted 1:8,000, 7 days post-inoculation): <7.8 pg/mL | HIV p24 protein in culture supernatants (5.0% paraformaldehyde 60 min, treated HIV diluted 1:8,000, 10 days post-inoculation): <7.8 pg/mL | HIV p24 protein in culture supernatants (5.0% paraformaldehyde 60 min, treated HIV diluted 1:8,000, 14 days post-inoculation): <7.8 pg/mL | HIV p24 protein in culture supernatants (5.0% paraformaldehyde 60 min, treated HIV diluted 1:80,000, 3 days post-inoculation): <7.8 pg/mL | HIV p24 protein in culture supernatants (5.0% paraformaldehyde 60 min, treated HIV diluted 1:80,000, 7 days post-inoculation): <7.8 pg/mL | HIV p24 protein in culture supernatants (5.0% paraformaldehyde 60 min, treated HIV diluted 1:80,000, 10 days post-inoculation): <7.8 pg/mL | HIV p24 protein in culture supernatants (5.0% paraformaldehyde 60 min, treated HIV diluted 1:80,000, 14 days post-inoculation): <7.8 pg/mL | HIV p24 protein in culture supernatants (5.0% paraformaldehyde 60 min, treated HIV diluted 1:800,000, 3 days post-inoculation): <7.8 pg/mL | HIV p24 protein in culture supernatants (5.0% paraformaldehyde 60 min, treated HIV diluted 1:800,000, 7 days post-inoculation): <7.8 pg/mL | HIV p24 protein in culture supernatants (5.0% paraformaldehyde 60 min, treated HIV diluted 1:800,000, 10 days post-inoculation): <7.8 pg/mL | HIV p24 protein in culture supernatants (5.0% paraformaldehyde 60 min, treated HIV diluted 1:800,000, 14 days post-inoculation): <7.8 pg/mL | HIV p24 protein in culture supernatants (exposure time 15 minutes, treated HIV diluted 1:8,000, 3 days post-inoculation): >125 pg/mL | HIV p24 protein in culture supernatants (exposure time 15 minutes, treated HIV diluted 1:8,000, 7 days post-inoculation): >125 pg/mL
